# Assay results reported in US20210267939A1, “COMPOSITIONS AND METHODS FOR TREATING NAFLD/NASH AND RELATED DISEASE PHENOTYPES” (priority 2018, published 2021).
# Tests used:
# [1] = tested on: site-specific phosphorylation changes in liver samples; assay: Phospho-proteomics of liver from treated Zucker fatty rats; assay type: in vivo; conditions: BT2 vs vehicle ZFR
# Protocol: Phosphoproteomics: Large-scale measurements of phosphorylation changes in response to BT2 and PPM1K were performed. Briefly, protein from livers of ZFR treated with BT2 or DMSO, or with Ad-CMV-PPM1K or Ad-CMV-GFP, were solubilized, digested with LysC and trypsin, labeled with TMT-6plex reagents, and mixed in batches of six to enable two direct comparisons: 1) BT2 vs. DMSO (n=3), 2) PPM1K vs. GFP (n=3). Phosphopeptides were enriched from the majority of each mixture using immobilized metal affinity chromatography (IMAC), and a small portion of the input material was retained for assessment of relative protein abundance. Both phosphopeptide and input fractions were subjected to nanoLC-MS/MS using a nano-Acquity UPLC system (Waters) coupled to a Q Exactive Plus Hybrid Quadrupole-Orbitrap mass spectrometer (Thermo Fischer Scientific). Raw LC-MS/MS data were processed in Proteome Discoverer v2.1 (PD2.1, Thermo Fisher Scientific) and subsequent statistical analysis was performed in Microsoft EXCEL. […] (PD2.2, Thermo Fisher Scientific). Phosphosite motif analysis and logo generation was performed in PhosphoSitePlus® by submitting pre-aligned 15 amino acid sequences for all modulated phosphopeptides from each study into the motif and logo analysis tools (Hornbeck et al., 2015).
# Tissue lysis and protein digestion for proteomics: Approximately 50 mg of pulverized liver tissue power from each rat (3 BT2- and 3 DMSO-treated animals; 3 PPM1K- and 3 GFP-overexpressing animals) was re-suspended in 400 μL of ice-cold 8M Urea Lysis Buffer (8 M urea in 50 mM Tris, pH 8.0, 40 mM NaCl, 2 mM MgCl2, 1 mM Na3VO4, 10 mM Na4P2O7, 50 mM NaF, supplemented with protease inhibitor (1× cOmplete mini EDTA-free) and phosphatase inhibitor (1× PhosStop) tablets). […] Protein concentration was determined by BCA, and equal amounts of protein (500 μg, adjusted to 2.5 mg/mL with Urea Lysis Buffer) from each sample was reduced with 5 mM DTT at 37° C. for 30 min, cooled to RT, alkylated with 15 mM iodoacetamide for 30 min in the dark and unreacted iodoacetamide quenched by the addition of DTT up to 15 mM. […]
# Zucker fatty rats = assay: 1 g/kg i.p. glucose tolerance test in treated Zucker fatty rats; assay type: in vivo; conditions: ZFR, BT2 20 mg/kg i.p., day 6, 1 g/kg i.p. glucose, vs vehicle
# Protocol: Individually housed, male 12 week-old Zucker fatty rats (ZFR, Charles River Laboratories) maintained on a custom control low fat (LF) diet (A11072001, Research Diets) were used for the BDK inhibition and PPM1K overexpression studies. For the BDK inhibition study, ZFR were administered the small molecule BDK inhibitor 3,6-dichlorobenzo[b]thiophene-2-carboxylic acid (BT2, Sigma) daily at a dose of 20 mg/kg dissolved in 200 ul of sterile dimethylsulfoxide by i.p. injection for 7 days. The control group was administered an equal volume of vehicle each day. […]
# Plasma concentrations of the alpha-keto acids of leucine (α-keto-isocaproate, KIC), isoleucine (α-keto-β-methylvalerate, KMV) and valine (α-keto-isovalerate, KIV) were measured by LC-MS as previously described (Glynn et al., 2015; White et al., 2016). Other plasma analytes were measured on a Beckman DxC600 autoanalyzer, using reagents for lactate, total cholesterol, and triglycerides from Beckman, and non-esterified fatty acids (NEFA) and ketones (total and 3-hydroxybutyrate) from Wako (Richmond, Va.). Glycerol was measured using reagents from TG-B by Roche Diagnostics (Indianapolis, Ind.). Liver triglycerides were quantified using the triglyceride quantification kit from Abcam. Plasma insulin concentrations were measured with a Millipore EMD Rat insulin ELISA kit.
smiles,measurement,setting,value
"O=C(O)c1sc2cc(Cl)ccc2c1Cl [BT2, 3,6-dichlorobenzo[b]thiophene-2-carboxylic acid]","phosphorylation of serine 25, serine 29 and serine79 of acetyl-coA carboxylase 1 (ACC1), phospho-proteomics",[1],less phosphorylated
same,"phosphosite serine 454 of ATP-citrate lyase (ACL), phospho-proteomics",[1],significantly downregulated
same,"Log2 fold change in phosphorylation of serine 293 (serine 333) of BCKDH e1a, phospho-proteomics",[1]; p=0.054,−0.68
same,glucose excursion during ipGTT,Zucker fatty rats,significantly smaller
same,insulin excursion during ipGTT,Zucker fatty rats,significantly smaller
